{"source": "a melting point compilation (Tetko et al.; mined from patent text by program, amines drawn as free bases though some values may be those of a salt)", "data": [{"units": {"melting point": "°C"}, "values": [{"smiles": "COC(=O)[C@H](O)[C@@H](NC(=O)OC(C)(C)C)c1ccc(N(C)C)cc1", "melting point": 120}, {"smiles": "Cc1cnc(Nc2nc(-c3ccccc3)nc3ccccc23)s1", "melting point": "215 to 216"}, {"smiles": "CCOC(=O)c1c(NC23CC4CC(CC(C4)C2)C3)n[nH]c1C", "melting point": "190 to 203"}, {"smiles": "CC1(C)CCC(C)(C)c2c1ccc(CS(=O)(=O)c1ccccc1)c2N", "melting point": "156 to 157"}, {"smiles": "COc1ccc(N(C(=O)CN2C(=O)C(Cc3nn(Cc4ccccc4)c4c3CCCC4)C(=O)N(c3ccccc3)c3ccccc32)C(C)C)cc1", "note": "(centres undefined)", "melting point": "173 to 176"}, {"smiles": "CCCc1c(OCCCCCOc2ccc3c(=O)cc(C(=O)OCC)oc3c2CCC)ccc(C(C)=O)c1O", "melting point": "90 to 91"}, {"smiles": "CS(=O)(=O)NCCCn1c(-c2ccc(Br)cc2)csc1=Nc1ccccc1", "melting point": "128 to 134"}, {"smiles": "O=C(NCCO)c1cccc(-c2cccc3cc(Cc4ccc(OCC(F)(F)F)nc4)sc23)c1", "melting point": "123 to 124"}, {"smiles": "COc1ccc2c(c1)C=C(C(=O)N1CCN(C(=O)c3cc(OC)c(OC)c(OC)c3)CC1)CCO2", "melting point": "110 to 115"}, {"smiles": "CCc1noc(-c2ccc(OCCC3CCN(c4ccc(C)nn4)CC3)cc2)n1", "melting point": 122}, {"smiles": "Cc1ccsc1C=C1CCc2cc(OCCc3c[nH]cn3)ccc2C1=O", "melting point": "191 to 193"}, {"smiles": "Cc1c(CO)ncn1C", "melting point": "161 to 163"}, {"smiles": "O=C(O)CCCCC(Cc1ccc(F)cc1)C(=O)O", "note": "(centres undefined)", "melting point": "80 to 81"}, {"smiles": "CCCCN(CCCC)C(=S)C(=S)N(CCCC)CCCC", "melting point": "35 to 38"}, {"smiles": "Cc1oc(-c2ccccc2)nc1COc1ccc(CON=C(CCCCCCCC(=O)O)c2ccccc2)cc1", "melting point": "67 to 68"}, {"smiles": "O=C(NCCN1CCCC1)c1ccc(-c2ccc3nnn(Cc4ccc5ncccc5c4)c3n2)cc1", "melting point": "135 to 137"}, {"smiles": "CCCCC1=CC(=C(Br)Br)N(Cc2ccccc2)C1=O", "melting point": "56 to 58"}, {"smiles": "C#CCCCOc1c(C)cc(-c2nc(C)no2)cc1C", "melting point": "38 to 40"}, {"smiles": "CN1Cc2c(Cl)cc(F)c(-n3c(=O)cc(C(F)(F)F)n(C)c3=O)c2O1", "melting point": "218 to 219"}, {"smiles": "CN(C(=O)COc1nnc(C(F)(F)F)s1)c1ccccc1", "melting point": 54}, {"smiles": "CCc1c(C)nc2ccc(Cl)cn2c1=O", "melting point": "114 to 116"}, {"smiles": "C=Cc1ccc(CSCCNC(=S)CCC(=O)O)cc1", "melting point": "97 to 99"}, {"smiles": "O=C(Nc1ccc(-n2nc(C(F)(F)F)cc2OC(F)F)cc1)c1cccnc1F", "melting point": "149 to 150"}, {"smiles": "COC(=O)c1ccc(OCCCl)cc1", "melting point": "56 to 58"}, {"smiles": "CS(=O)(=O)c1ccc(-c2cc(C#N)c(Br)nc2-c2ccc(F)cc2)cc1", "melting point": "230 to 232"}, {"smiles": "O=C(Nc1ccccc1N1CCc2ccccc21)C1CC1", "melting point": "83 to 85"}, {"smiles": "CCCC(=O)c1cc2c(=O)cc(C(=O)OCC)[nH]c2cc1C", "melting point": "173 to 175"}, {"smiles": "OCc1cnn2ccc3c(c12)CCO3", "melting point": "152 to 154"}, {"smiles": "NC(=O)Cc1ccc2noc(-c3ccc(Cl)cc3)c2c1", "melting point": "242 to 244"}, {"smiles": "N#CC1CN1C(=O)c1ccc(Cl)cc1Cl", "note": "(centres undefined)", "melting point": "95 to 97"}, {"smiles": "Cc1ccc(S(=O)(=O)Nc2coc3ccccc3c2=S)cc1", "melting point": 212}, {"smiles": "COc1c(N2CC(C)(N)C3(CC3)C2)c(F)cc2c(=O)c(C(=O)O)cn([C@@H]3C[C@@H]3F)c12", "note": "(some centres undefined)", "melting point": "195 to 200"}, {"smiles": "Cc1c(-c2ccc3c(c2)NC(=O)C(C)O3)nc2ccccn12", "note": "(centres undefined)", "melting point": "216 to 217"}, {"smiles": "CC[C@H](C)[C@H](NC(=O)N(C)Cc1ccccn1)C(=O)N[C@@H](Cc1ccccc1)[C@@H](O)C[C@H](Cc1ccccc1)NC(=O)OCc1cncs1", "melting point": "66 to 69"}, {"smiles": "CCCCc1nn2c(-c3ccccc3)c(C)nc2n1Cc1ccc(-c2ccccc2-c2nnn[nH]2)cc1", "melting point": "> 108"}, {"smiles": "O=[N+]([O-])c1ccc(-c2nnsc2-c2ccc([N+](=O)[O-])cc2)cc1", "melting point": "185 to 186"}, {"smiles": "CNC(=S)NCCCCc1c[nH]c(NC(=N)N)n1", "melting point": "179 to 184"}, {"smiles": "Clc1ccc(-c2ccc(C(Cl)Cn3cncn3)cc2)cc1", "note": "(centres undefined)", "melting point": 118}, {"smiles": "CNC(=O)c1[nH]c(C)c2c1CN=C(c1ccccc1F)c1cc(Cl)ccc1-2", "melting point": "252 to 255"}, {"smiles": "CONS(=O)(=O)c1ccccc1Cl", "melting point": "92.5 to 94"}, {"smiles": "FCc1cccc(C#CCCn2nc3cc(F)c(F)cc3n2)n1", "melting point": "104 to 105"}, {"smiles": "O=C(N[C@H](Cc1ccc(C(F)(F)F)cc1)[C@@H](O)c1ccoc1)c1ccc(F)c2ccccc12", "note": "(racemic)", "melting point": "206 to 207"}, {"smiles": "CC(Cc1cc(C(=O)c2ccccc2)ccc1OC(=O)C(C)(C)C)C(=O)O", "note": "(centres undefined)", "melting point": "119 to 120"}, {"smiles": "C=C(c1nc2ccccc2s1)C1CCN(CCc2ccc(OC)cc2)CC1", "melting point": "84 to 85"}, {"smiles": "CC(C)(C)NS(=O)(=O)c1ccccc1-c1ccc(CBr)c(F)c1", "melting point": "138 to 140"}, {"smiles": "CC(C)(C)c1cc(SCc2cccc(C#N)c2)cc(C(C)(C)C)c1O", "melting point": "61 to 63"}, {"smiles": "CN(C(CCn1c(=O)cc(Cl)[nH]c1=O)C(=O)NO)S(=O)(=O)c1ccc(Oc2ccc(Cl)cc2)cc1", "note": "(centres undefined)", "melting point": "171 to 173"}, {"smiles": "COc1cccc(N)c1C(=O)NC1CCN(C(C)CC(C(=O)N(C)C)(c2ccccc2)c2ccccc2)CC1O", "note": "(centres undefined)", "melting point": 175}, {"smiles": "C[C@@H](n1cc(Cn2cncn2)nn1)[C@](O)(Cn1cncn1)c1ccc(F)cc1F", "melting point": "162 to 163"}, {"smiles": "O=C(c1ccc(Br)cc1)c1cccc2cc[nH]c12", "melting point": "162 to 164"}, {"smiles": "c1ccc2c(c1)CNc1ccccc1S2", "melting point": "145 to 148"}, {"smiles": "O=[N+]([O-])c1cccc(C2=NOCCS2)c1", "melting point": "114 to 115"}, {"smiles": "CCOC(=O)c1ccc(-c2nc(COc3ccc(CO)cc3OC)c(C)o2)s1", "melting point": "108 to 109"}, {"smiles": "COC1C(C)OC(ON(C)Cc2ccc(-c3ncn(-c4ccc(OC(F)(F)F)cc4)n3)cc2)C(OC)C1OC", "note": "(centres undefined)", "melting point": "93 to 100"}, {"smiles": "NS(=O)(=O)c1ccc(-n2nc(C(F)F)cc2-c2ccc(Cl)cc2)cc1", "melting point": "185 to 186"}, {"smiles": "CCCCCCCCCCCCCCCCCC(=O)SC1CCN(C(C(=O)OC)c2ccccc2F)CC1", "note": "(centres undefined)", "melting point": "50 to 52"}, {"smiles": "CN(C)S(=O)(=O)c1cc(N)c(N)c([N+](=O)[O-])c1", "melting point": "211 to 213"}, {"smiles": "CCN(CC)C(=O)c1c(C(C)(O)c2cc3cnccc3n2S(=O)(=O)c2ccccc2)ccnc1OC", "note": "(centres undefined)", "melting point": 236}, {"smiles": "NS(=O)c1ncnc2c1ncn2C1OC(CO)C(O)C1O", "note": "(centres undefined)", "melting point": "> 120"}, {"smiles": "N#Cc1ccc(N=CNc2ccc(C#N)cc2)cc1", "melting point": "214 to 217"}, {"smiles": "Cc1nc2c3c(c(CO)cc2n1C)CCC1(Cc2ccccc2C1)N3", "melting point": "272 to 274"}, {"smiles": "Nc1ccc2ccc(N3CCCC3)nc2n1", "melting point": 251}, {"smiles": "CCCCc1nn(-c2ccc(C(F)(F)F)cn2)cc1CCCOc1c(CC(=O)O)cccc1OC", "melting point": "121 to 122"}, {"smiles": "CCN(CC)c1ccc(C2(c3ccc(N(C)C)cc3N(C)C)OC(=O)c3ccccc32)cc1", "note": "(centres undefined)", "melting point": "168 to 170"}, {"smiles": "CCCN(CC1CC1)c1nc(C)[nH]c2c(-c3ccc(Cl)cc3Cl)nc(C)c1-2", "melting point": "66 to 68"}, {"smiles": "CN(Cc1ccc(NC(=O)C2=Cc3cc(Br)ccc3S(=O)(=O)CC2)cc1)C1CCOCC1", "melting point": "232 to 235"}, {"smiles": "CC=CCn1c(C)c(C)c2cnnc(OCc3ccc(Cl)cc3F)c21", "melting point": "106 to 109"}, {"smiles": "COC(=S)NCc1cn(-c2ccc(N3CCC(=O)CC3)c(F)c2)nn1", "melting point": "145 to 147"}, {"smiles": "Nc1sc(-c2ccccc2)c(CN2CCCCC2)c1C(=O)c1ccc(Cl)cc1", "melting point": "185 to 187"}, {"smiles": "Cc1noc(C)c1-c1cn(Cc2ccccc2)c(=O)c2ncccc12", "melting point": "168 to 170"}, {"smiles": "CCCn1c(=O)n(Cc2ccccc2)c(=O)c2c(Cl)cc(Cl)cc21", "melting point": "90 to 93"}, {"smiles": "O=S(=O)(CCl)Nc1ccnn1-c1c(Cl)cc(C(F)(F)F)cc1Cl", "melting point": "63 to 66"}, {"smiles": "CCC(=O)N1Cc2ccccc2C2(Cc3ccc(Cl)cc3O2)C1", "note": "(centres undefined)", "melting point": "106 to 107"}, {"smiles": "CCC(=O)c1ccc(-c2cc(NC(=O)OC(C)(C)C)ccc2C)c(C)c1", "melting point": 119}, {"smiles": "COc1ccc2c(c1)C(c1ccccc1Cl)C(=O)N2", "note": "(centres undefined)", "melting point": 179}, {"smiles": "Cc1oc(-c2ccccc2)nc1COc1cccc(C#CC(C)n2oc(=O)[nH]c2=O)c1", "note": "(centres undefined)", "melting point": "55 to 57"}, {"smiles": "CCOC(=O)Nc1ccn2cc(C)nc2c1I", "melting point": 148}, {"smiles": "CSCCCc1cc(F)c2ncc(C(=O)NCc3ccc(Cl)cc3)c(O)c2c1", "melting point": "178 to 180"}, {"smiles": "Cc1ccc(N2C(=O)C(O)=C(C(=O)c3ccc(C(C)C)cc3)C2c2ccc(Cn3nccn3)cc2)nn1", "note": "(centres undefined)", "melting point": 285}, {"smiles": "COc1ccc(C2CCN(C(=O)C(=O)NO)CC2)cc1C=C1CCCC1", "melting point": "127 to 128"}, {"smiles": "CC(C)C(=O)Nc1ccn(C)c1", "melting point": "125 to 126"}, {"smiles": "Cn1ncnc1COc1nn2c(-c3ccccc3F)nncc2c1-c1ccc(F)cc1", "melting point": 192}, {"smiles": "COc1c(O)ccc2oc(-c3ccc(O)cc3)cc12", "melting point": "165 to 168"}, {"smiles": "Cc1ccc(NCC2CCN(C(C)C)CC2)c(C(=O)Nc2ccc(F)cn2)c1", "melting point": "58 to 60"}, {"smiles": "CCCCC(C(=O)N[C@@H](CC(=O)O)c1ccc2c(c1)OCO2)N1C(=O)N(Cc2ccccc2)C(=O)C1(C)C", "note": "(some centres undefined)", "melting point": "53 to 55"}, {"smiles": "Cc1oc(-c2ccccc2)nc1COc1cccc(CSc2ccc(CC(=O)O)cc2Cl)c1", "melting point": "150 to 151"}, {"smiles": "CCN(CC)CCCCC1CCN(C(=O)N2c3cc(Cl)ccc3C(=O)Nc3cccnc32)CC1", "melting point": "126 to 127"}, {"smiles": "CC(=O)C(=Cc1cccnc1)C(C)=O", "melting point": "52 to 57"}, {"smiles": "Sc1nc(CCCC2CCCCC2)c[nH]1", "melting point": "176 to 177"}, {"smiles": "CC(=O)Nc1ccc(S(=O)(=O)NCC(O)(Cn2cncn2)c2ccc(Cl)cc2Cl)cc1", "note": "(centres undefined)", "melting point": "232 to 233"}, {"smiles": "Cc1cc(C)nc(OC(C(=O)O)C(C)(C)C)n1", "note": "(centres undefined)", "melting point": "167 to 169"}, {"smiles": "CCOC(=O)Cc1cc(Cl)cc(C(=O)c2ccc(Br)cc2)c1N", "melting point": "92 to 94"}, {"smiles": "CC(C)c1ccc(NC(=O)OC(C)(C)C)c(N)c1", "melting point": "100 to 101"}, {"smiles": "O=C1CCC(c2ccc3[nH]c(-c4cccc(C(F)(F)F)c4)cc3c2)=NN1", "melting point": "215 to 218"}, {"smiles": "CC1(C)OC[C@H](COn2cnc3c(Cl)nc(NC=O)nc32)O1", "melting point": "145 to 148"}, {"smiles": "O=C1c2ccccc2C(=O)C1c1cccc(O)c1", "melting point": "139 to 141"}, {"smiles": "COc1ccc(Cc2oc3c(c2C)C(=O)C(C)=C(C)C3=O)cc1", "melting point": "111 to 113"}, {"smiles": "CCOC(=O)c1ncn2c1c(S)nc1ccccc12", "melting point": "251 to 253"}, {"smiles": "Cc1nccn1-c1nc(-c2ccc(Cl)cc2)c(CCCN2C(=O)CN(C)C2=O)o1", "melting point": "105 to 106"}]}]}
